In patent EP4711371A1 (priority 2023, dated 2024):
Where two headings read alike, the source gives them in different places.

Key:
Assay type in all cases: cell-based
[1] = test system: T47D; experiment: cells; conditions: Homo sapiens, 120 h, read-out: T47D IC50
Procedure: (§1) Test Example 2 In vitro proliferation inhibition assay of the camptothecin derivatives (Payload) of the present invention on tumor cells 1. Instruments and Reagents
(§2) 2. Experimental Procedure • a. Plating & culture: MDA-MB-453 (purchased from: Xiehe, catalog number: 1101HUM-PUMCO00016)/T47D (Kebai, CBP60397)/HT1376 cells (purchased from: Kebai, catalog number: CBP60310) were cultured into 96-well plates by a density of 1×10^3 /2×10^3 /1×10^3 cells per100 µL, and 200 µL of PBS was added to the outermost circle (to reduce the volatilization of the culture medium), and cultured at 37°C, 5% CO2 incubator for 24 h; • b. Drug Addition & Incubation: The 96-well flat-bottom plate was retrieved. The culture medium in the wells was aspirated, and 100 µL of the ADC drug/payload (diluted in culture medium) was added to each well. The plate was then incubated at 37°C, 5% CO2 incubator for 5 days. 3. Detection and data processing • a. The 96-well plate was retrieved. The culture medium was removed, and 100 µL of detection reagent (CCK8:medium= 1:9) was added to each well. The plate was then placed in a 37°C, 5% CO2 incubator for 4 hours; • b. The optical density (OD) at 450 nm was measured using a microplate reader (model: CEY0017), and the data was recorded with Excel. • c. Graphpad Prism 9.0 was used to analyze and organize the data.

[2] = test system: HT1376; experiment: In vitro proliferation inhibition assay of camptothecin derivatives (Payload), Test Example 2; conditions: Homo sapiens, HT-1376, 120 h, read-out: HT1376 IC50
Procedure: as §1, §2

[3] = test system: MDA-MB-453; experiment: as above; conditions: Homo sapiens, MDA-MB-453, 120 h, read-out: MDA-MB-453 IC50
Procedure: as §1, §2

[4] = test system: T47D; experiment: cells; conditions: Homo sapiens, 96 h, payload, cultured 4 days, CCK-8, read-out: T47D IC50
From the text: (§3) The control compounds used in the experiment were DXD (synthesized from EXD according to the synthesis method of patent EP2907824B1. EXD was purchased from MedChemExpress, catalog number: HY-13631A) and SN38 (purchased from Bide Pharmatech, catalog number BD8481). Their structural formulas are [drawing 515] respectively.
(§4) The cell lines used in this experiment were human breast cancer cells SK-BR-3, T47D, MDA-MB-453, human malignant melanoma cells A375, human lung squamous carcinoma cells NCI-H1703, and human gastric cancer cells NCI-N87. Cell suspensions were prepared in fresh cell culture medium containing 10% FBS and then diluted to a density of 5 × 10^4 cells/mL, 10×10^4 cells/mL, 100 µL per well was added to a 96-well cell culture plate (Thermo catalog number: 167425), and cultured at 37°C with 5% carbon dioxide for 24 h.
(§5) The test compounds of the present invention and the control compounds were each prepared to 10 mM stock solutions in DMSO, and the drugs were diluted with 5% FBS 1640 culture medium in a gradient of 50, 10, 2, 0.4, 0.08, 0.016, 0.0032, 0.00064, 0.000128, and 0 µM, with two replicates for each well.
(§6) 50 µL of cell supernatant was pipetted from each 96-well plate, followed by the addition of 50 µL of compound dilutions at final […] of 25, 5, 1, 0.2, 0.04, 0.008, 0.0016, 0.00032, 0.000064, and 0 µM. After mixing, the cells were cultured in a constant temperature CO2 incubator for 4 days. Cell supernatant was then added with 100 µL of detection reagent (5% FBS1640 medium and CCK-8 solution in a 10:1 ratio) and incubated in an incubator for 4 hours. […] was read on a microplate reader (TECAN, Spark), and data were analyzed using Graphpad Prism 8 software.

[5] = test system: MDA-MB-453; experiment: In vitro proliferation inhibition assay of camptothecin derivatives (Payload), Test Example 1; conditions: Homo sapiens, MDA-MB-453, 96 h; payload, cultured 4 days, CCK-8; read-out: MDA-MB-453 IC50
From the text: as §3, §4, §5, §6

[6] = payload, incubated 5 days, CCK8, OD 450 nm

| SMILES | IC50 [1] [nM] | IC50 [2] [nM] | IC50 [3] [nM] | IC50 [1, 6] [nM] | IC50 [2, 6] [nM] | IC50 [3, 6] [nM] | IC50 [4] [nM] | IC50 [5] [nM] |
| --- | --- | --- | --- | --- | --- | --- | --- | --- |
| CC[C@@]1(O)C(=O)OCc2c1cc1n(c2=S)Cc2c-1nc1cc(F)c(OC)cc1c2CN [Compound 12] | 0.093 | 1.97 | 0.312 |  |  |  |  |  |
| CC[C@@]1(O)C(=O)OCc2c1cc1n(c2=S)Cc2c-1nc1cc3c(cc1c2CN)OCCO3 [Compound 13] | 0.059 | 10.9 | 0.797 |  |  |  |  |  |
| CC[C@@]1(O)C(=O)OCc2c1cc1n(c2=S)Cc2c-1nc1cc(Cl)c(C)cc1c2CN [Compound 14] | 0.25 | 13.8 | 5.23 |  |  |  |  |  |
| CC[C@@]1(O)C(=O)OCc2c1cc1n(c2=S)Cc2c-1nc1cc(F)c(F)cc1c2CN [Compound 15] | 0.157 | 9.76 | 1.1 |  |  |  |  |  |
| CC[C@@]1(O)C(=O)OCc2c1cc1n(c2=S)Cc2c-1nc1cc(F)c(C)cc1c2[C@@H](C)N [Compound 16] | 0.141 | 3.87 | 0.481 |  |  |  |  |  |
| CC[C@@]1(O)C(=O)OCc2c1cc1n(c2=S)Cc2c-1nc1cc(F)c(C)cc1c2CNC(=O)[C@@H](O)C1CC1 [Compound 19] | 0.268 | 9.36 | 1.01 |  |  |  |  |  |
| CC[C@@]1(O)C(=O)OCc2c1cc1n(c2=S)Cc2c-1nc1cc(F)c(C)cc1c2CNC(=O)[C@H](O)C1CC1 [Compound 20] | 0.245 | 0.917 | 8.06 |  |  |  |  |  |
| CC[C@@]1(O)C(=O)OCc2c1cc1n(c2=S)Cc2c-1nc1cc(F)c(C)cc1c2CNC(=O)[C@H]1C[C@@H](O)C1 [Compound 21] | 0.108 | 11.6 | 0.294 |  |  |  |  |  |
| CC[C@@]1(O)C(=O)OCc2c1cc1n(c2=S)Cc2c-1nc1cc(F)c(C)cc1c2CNC(=O)[C@H](C)O [Compound 22] | 0.116 | 5.38 | 0.362 |  |  |  |  |  |
| CC[C@@]1(O)C(=O)OCc2c1cc1n(c2=S)Cc2c-1nc1cc(F)c(C)cc1c2CNC(=O)[C@@H](C)O [Compound 23] | 0.117 | 5.94 | 0.343 |  |  |  |  |  |
| CC[C@@]1(OC(=O)Cn2cc(F)c(=O)[nH]c2=O)C(=O)OCc2c1cc1n(c2=S)Cc2c-1nc1cc(F)c(C)cc1c2CN [Compound 24] |  |  |  | 3.6 | 25.4 | 78.4 |  |  |
| CC[C@@]1(OC(=O)Cn2cc(F)c(=O)[nH]c2=O)C(=O)OCc2c1cc1n(c2=S)Cc2c-1nc1cc(F)c(C)cc1c2CNC(=O)CO [Compound 25] |  |  |  | 2.6 | 8.39 | 103 |  |  |
| CC[C@@]1(O)C(=O)OCc2c1cc1n(c2=S)Cc2c-1nc1cc(F)c(C)cc1c2CNC(=S)CO [Compound 26] | < 0.003 | 0.014 | 1 |  |  |  |  |  |
| CC[C@@]1(O)C(=O)OCc2c1cc1n(c2=S)Cc2c-1nc1cc(F)c(C)cc1c2CNCCO [Compound 27] | 0.152 | 2.5 | 0.17 |  |  |  |  |  |
| CC[C@@]1(O)C(=O)OCc2c1cc1n(c2=S)Cc2c-1nc1cc(F)c(C)cc1c2CNC(=O)C1CCC(O)C1 (some centres unmarked) [Compound 28] | 0.15 | 42.4 | 6.17 |  |  |  |  |  |
| [2H]C([2H])(O)C(=O)NCc1c2c(nc3cc(F)c(C)cc13)-c1cc3c(c(=S)n1C2)COC(=O)[C@]3(O)CC [Compound 29] | 0.014 | 5.98 | 0.183 |  |  |  |  |  |
| CC[C@@]1(O)C(=O)OCc2c1cc1n(c2=S)Cc2c-1nc1cc(F)c(OC)cc1c2CNC(=O)[C@H]1C[C@@H](O)C1 [Compound 30] | 0.391 | 66.7 | 1.01 |  |  |  |  |  |
| CC[C@@]1(O)C(=O)OCc2c1cc1n(c2=S)Cc2c-1nc1cc(F)c(OC)cc1c2CNC(=O)CO [Compound 31] | 0.142 | 19.5 | 0.337 |  |  |  |  |  |

| SMILES | IC50 [1] [nM] | IC50 [2] [nM] | IC50 [3] [nM] | IC50 [1, 6] [nM] | IC50 [2, 6] [nM] | IC50 [3, 6] [nM] | IC50 [4] [nM] | IC50 [5] [nM] |
| --- | --- | --- | --- | --- | --- | --- | --- | --- |
| CC[C@@]1(O)C(=O)OCc2c1cc1n(c2=S)Cc2c-1nc1cc(F)c(OC)cc1c2CNC(=O)[C@H](C)O [Compound 32] | 0.089 | 15.3 | 0.417 |  |  |  |  |  |
| CC[C@@]1(O)C(=O)OCc2c1cc1n(c2=S)Cc2c-1nc1cc(F)c(OC)cc1c2CNC(=O)OCCO [Compound 33] | 0.392 | 45.4 | 0.599 |  |  |  |  |  |
| CC[C@@]1(O)C(=O)OCc2c1cc1n(c2=S)Cc2c-1nc1cc(F)c(OC)cc1c2CNC(=O)[C@@H](C)O [Compound 34] | 0.151 | 10.1 | 0.652 |  |  |  |  |  |
| CC[C@@]1(O)C(=O)OCc2c1cc1n(c2=S)Cc2c-1nc1cc(F)c(OC)cc1c2CNC(=S)CO [Compound 35] |  | 4.94 | ~1.22 |  |  |  |  |  |
| CC[C@@]1(O)C(=O)OCc2c1cc1n(c2=S)Cc2c-1nc1cc3c(cc1c2CNC(=O)CO)OCCO3 [Compound 36] | 0.119 | 10.3 | 0.029 |  |  |  |  |  |
| CC[C@@]1(O)C(=O)OCc2c1cc1n(c2=S)Cc2c-1nc1cc3c(cc1c2CNC(=O)OCCO)OCCO3 [Compound 37] | 0.054 | 13.5 | 0.013 |  |  |  |  |  |
| CC[C@@]1(O)C(=O)OCc2c1cc1n(c2=S)Cc2c-1nc1cc3c(cc1c2CNC(=O)[C@H]1C[C@@H](O)C1)OCCO3 [Compound 38] | 0.234 | 38.4 | 0.121 |  |  |  |  |  |
| CC[C@@]1(O)C(=O)OCc2c1cc1n(c2=S)Cc2c-1nc1cc3c(cc1c2CNC(=S)CO)OCCO3 [Compound 39] | 0.047 | 8.69 | 0.482 |  |  |  |  |  |
| CC[C@@]1(O)C(=O)OCc2c1cc1n(c2=S)Cc2c-1nc1cc3c(cc1c2CNC(=O)[C@H](C)O)OCCO3 [Compound 40] | 0.053 | 18.2 | 0.021 |  |  |  |  |  |
| CC[C@@]1(O)C(=O)OCc2c1cc1n(c2=S)Cc2c-1nc1cc3c(cc1c2CNC(=O)[C@@H](C)O)OCCO3 [Compound 41] | 0.231 | 24.1 | 0.943 |  |  |  |  |  |
| CC[C@@]1(O)C(=O)OCc2c1cc1n(c2=S)Cc2c-1nc1cc(Cl)c(C)cc1c2CNC(=O)[C@H]1C[C@@H](O)C1 [Example 42] | 0.845 | 40.2 | 4.18 |  |  |  |  |  |
| CC[C@@]1(O)C(=O)OCc2c1cc1n(c2=S)Cc2c-1nc1cc(Cl)c(C)cc1c2CNC(=O)[C@H](C)O [Example 43] | 0.089 | 9.94 | 1.64 |  |  |  |  |  |
| CC[C@@]1(O)C(=O)OCc2c1cc1n(c2=S)Cc2c-1nc1cc(F)c(F)cc1c2CNC(=O)[C@H]1C[C@@H](O)C1 [Example 44] | 0.195 | 5.05 | 0.674 |  |  |  |  |  |
| CC[C@@]1(O)C(=O)OCc2c1cc1n(c2=S)Cc2c-1nc1cc(F)c(F)cc1c2CNC(=O)[C@H](C)O [Example 45] | 2.79 | 3.79 | 4.97 |  |  |  |  |  |
| CCC1(O)CC(=O)OCc2c1cc1n(c2=O)Cc2c-1nc1cc(F)c(C)cc1c2CN (centres unmarked) [Example 47] |  |  |  |  |  |  | 0.956 | 4.37 |
| CCC1(O)CC(=O)OCc2c1cc1n(c2=O)Cc2c-1nc1cc(F)c(C)cc1c2CCCCO (centres unmarked) [Example 48] |  |  |  |  |  |  | 0.832 | 17.7 |
| CCC1(O)CC(=O)OCc2c1cc1n(c2=O)Cc2c-1nc1cc(F)c(F)cc1c2CN (centres unmarked) [Example 49] |  |  |  |  |  |  | 11 | 24.5 |
